Laboratory results published in patent US10035790B2, “RORγ modulators” (BRISTOL-MYERS SQUIBB COMPANY, priority 2012, dated 2018).
Where two headings read alike, the source gives them in different places.

Target: T1, ligand binding domain of human RORγ (A262-S507) (Homo sapiens, UniProt P51449)
T1 construct: made in house; host or cells: E. coli
T1 sequence (P51449 262-507): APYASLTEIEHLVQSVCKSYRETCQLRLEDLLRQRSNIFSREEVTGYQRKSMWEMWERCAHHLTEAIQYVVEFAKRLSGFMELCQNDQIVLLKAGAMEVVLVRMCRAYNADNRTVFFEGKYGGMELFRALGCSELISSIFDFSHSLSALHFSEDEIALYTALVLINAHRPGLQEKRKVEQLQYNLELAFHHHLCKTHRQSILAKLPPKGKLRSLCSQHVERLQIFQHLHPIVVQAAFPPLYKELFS
Test: General RORγ SPA binding assay (competition with [3H]25-hydroxycholesterol)
Details: inhibition of [3H]25-hydroxycholesterol binding
Outline: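 N-terminally His-tagged protein was expressed in E. coli and nickel-purified. Then 50 nM protein was preincubated with compound for 15 min at room temperature in PBS with 0.5% fatty acid free BSA, followed by radioligand for 15 min and copper His-tag SPA beads for 30 min. IC50 came from percent inhibition of binding.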

[1] = RORγ SPA binding assay, read-out: IC50

| IC50 [1] [nM] | SMILES | IC50 (IC50, RORγ SPA binding assay) [nM] |
| --- | --- | --- |
|  | Cc1nc(N)nc(C2CCN(C(=O)Oc3ccccc3F)CC2)c1C(=O)NCc1ccnc(C(F)(F)F)n1 [Compound A126, 2-Fluorophenyl 4-{2-amino-6-methyl-5-[({[2-(trifluoromethyl)pyrimidin-4-yl]methyl}amino)carbonyl]pyrimidin-4-yl}piperidine-1-carboxylate] | 15.2 |
| 57.9 | CC(=O)NCCNCC(O)(COc1cccc(C(F)(F)F)n1)c1cnc(C)nc1C1CCN(C(=O)Nc2c(F)cccc2F)CC1 (stereo not shown) [Compound N38, 4-{5-[2-{[2-(Acetylamino)ethyl]amino}-1-hydroxy-1-({[6-(trifluoromethyl)pyridin-2-yl]oxy}methyl)ethyl]-2-methylpyrimidin-4-yl}-N-(2,6-difluorophenyl)piperidine-1-carboxamide] |  |
| 84 | Cc1ncc(C(=O)NOc2cccc(Cl)c2)c(C2CCN(C(=O)Cc3c(F)cccc3F)CC2)n1 [Compound H3, N-(3-chlorophenoxy)-4-(1-(2-(2,6-difluorophenyl)acetyl)piperidin-4-yl)-2-methylpyrimidine-5-carboxamide] |  |
| 19.2 | Cc1cc(C)cc(COC(C)c2cnc(C)nc2C2CCN(C(=O)Cc3c(F)cccc3F)CC2)c1 (stereo not shown) [Compound E11, 2-(2,6-Difluorophenyl)-1-(4-(5-(1-(3,5-dimethylbenzyloxy)ethyl)-2-methylpyrimidin-4-yl)piperidin-1-yl)ethanone] |  |
| 28 | Cc1cc(C)cc(OCC(C)(F)c2cnc(C)nc2C2CCN(C(=O)Cc3c(F)cccc3F)CC2)c1 (stereo not shown) [Compound E14, 4-{1-[(2,6-Difluorophenyl)acetyl]piperidin-4-yl}-5-{2-[(3,5-dimethylphenyl)oxy]-1-fluoro-1-methylethyl}-2-methylpyrimidine] |  |
| 253 | Cc1cc(C)cc(CNC(=O)c2cnc(C)nc2C2CCN(C(=O)C(F)(F)c3ccccc3)CC2)c1 [Compound A117, 4-{1-[Difluoro(phenyl)acetyl]piperidin-4-yl}-N-[(3,5-dimethylphenyl)methyl]-2-methylpyrimidine-5-carboxamide] |  |
| 5.1 | Cc1ncc(C(=O)NCc2cc(Cl)ccc2F)c(C2CCN(C(=O)Cc3c(F)cccc3F)CC2)n1 [Compound A42, N-(5-chloro-2-fluorobenzyl)-4-(1-(2-(2,6-difluorophenyl)acetyl)piperidin-4-yl)-2-methylpyrimidine-5-carboxamide] |  |
| 119 | CC(=O)Nc1ncc(C(C)(O)COc2ccnc(C(F)(F)F)n2)c(C2CCN(C(=O)Nc3c(F)cccc3F)CC2)n1 (stereo not shown) [Compound D31, 4-[2-(Acetylamino)-5-(1-hydroxy-1-methyl-2-{[2-(trifluoromethyl)pyrimidin-4-yl]oxy}ethyl)pyrimidin-4-yl]-N-(2,6-difluorophenyl)piperidine-1-carboxamide] |  |
| 36.7 | Cc1ncc(/C=N/Oc2cccc(C(F)(F)F)c2)c(C2CCN(C(=O)Cc3c(F)cccc3F)CC2(F)F)n1 (stereo not shown) [Compound B33, (E)-4-(1-(2-(2,6-Difluorophenyl)acetyl)-3,3-difluoropiperidin-4-yl)-2-methylpyrimidine-5-carbaldehyde O-3-(trifluoromethyl)phenyl oxime] |  |
| 290 | CN(C)CCNc1ncc(C(=O)NCc2cccc(Cl)c2)c(C2CCN(C(=O)Cc3c(F)cccc3F)CC2)n1 [Compound A97, N-(3-chlorobenzyl)-4-(1-(2-(2,6-difluorophenyl)acetyl)piperidin-4-yl)-2-((2-(dimethylamino)ethyl)amino) pyrimidine-5-carboxamide] |  |
| 503 | Cc1nc(C)c(C(=O)NOc2cccc(Cl)c2)c(C2CCN(C(=O)Cc3c(F)cccc3F)CC2)n1 [Compound H5, N-(3-chlorophenoxy)-4-(1-(2-(2,6-difluorophenyl)acetyl)piperidin-4-yl)-2,6-dimethylpyrimidine-5-carboxamide] |  |
| 10.7 | Cc1cc(C)cc(CNC(=O)c2c(C3CCN(C(=O)Cc4c(F)cccc4F)CC3)nc(C)[nH]c2=O)c1 [Compound I3, 4-(1-(2-(2,6-Difluorophenyl)acetyl)piperidin-4-yl)-N-(3,5-dimethylbenzyl)-2-methyl-6-oxo-1,6-dihydropyrimidine-5-carboxamide] |  |
| 29.6 | CC(C)Oc1ncc(C(C)(O)COc2ccnc(C(F)(F)F)n2)c(C2CCN(C(=O)Nc3c(F)cccc3F)CC2)n1 (stereo not shown) [Compound D40, N-(2,6-Difluorophenyl)-4-{5-(1-hydroxy-1-methyl-2-{[2-(trifluoromethyl)pyrimidin-4-yl]oxy}ethyl)-2-[(1-methylethyl)oxy]pyrimidin-4-yl}piperidine-1-carboxamide] |  |
| 445 | CSc1ncc(/C(C)=N/Oc2cccc(C(F)(F)F)c2)c(C2CCN(C(=O)Nc3c(F)cccc3F)CC2)n1 [Compound B50, N-(2,6-Difluorophenyl)-4-{2-(methylthio)-5-[(1E)-N-{[3-(trifluoromethyl)phenyl]oxy}ethanimidoyl]pyrimidin-4-yl}piperidine-1-carboxamide] |  |
| 101 | Cc1ncc(C(C)(CO)CNc2ccnc(C(F)(F)F)n2)c(C2CCN(C(=O)Cc3c(F)cccc3F)CC2)n1 (stereo not shown) [Compound F5, 2-(2,6-Difluorophenyl)-1-(4-(5-(1-hydroxy-2-methyl-3-(2-(trifluoromethyl)pyrimidin-4-ylamino)propan-2-yl)-2-methylpyrimidin-4-yl)piperidin-1-yl)ethanone] |  |
| 19.2 | Cc1ncc(C(=O)NCc2ccnc(C#N)c2)c(C2CCN(C(=O)Cc3c(F)cccc3F)CC2)n1 [Compound A55, N-((2-cyanopyridin-4-yl)methyl)-4-(1-(2-(2,6-difluorophenyl)acetyl)piperidin-4-yl)-2-methylpyrimidine-5-carboxamide] |  |
| 1120 | Cc1ncc(C(=O)NC(C)c2cccc(Cl)c2)c(C2CCN(C(=O)Cc3c(F)cccc3F)CC2)n1 (stereo not shown) [Compound A76, N-(1-(3-chlorophenyl)ethyl)-4-(1-(2-(2,6-difluorophenyl)acetyl)piperidin-4-yl)-2-methylpyrimidine-5-carboxamide] |  |
| 21.8 | Cc1cc(C)cc(CNC(=O)c2cncnc2C2CCN(C(=O)Cc3c(F)cccc3F)CC2)c1 [Compound A57, 4-(1-(2-(2,6-difluorophenyl)acetyl)piperidin-4-yl)-N-(3,5-dimethylbenzyl)pyrimidine-5-carboxamide] |  |
| 33.9 | Cc1cc(C)cc(CCC(C)(O)c2cnc(C)nc2C2CCN(C(=O)Cc3c(F)cccc3F)CC2)c1 (stereo not shown) [Compound D15, 2-(2,6-Difluorophenyl)-1-(4-(5-(4-(3,5-dimethylphenyl)-2-hydroxybutan-2-yl)-2-methylpyrimidin-4-yl)piperidin-1-yl)ethanone] |  |
|  | Cc1nc(C)c(C(=O)NCc2ccnc(C(F)(F)F)n2)c(C2CCN(C(=O)Oc3ccccc3)CC2)n1 [Compound A125, Phenyl 4-{2,6-dimethyl-5-[({[2-(trifluoromethyl)pyrimidin-4-yl]methyl}amino)carbonyl]pyrimidin-4-yl}piperidine-1-carboxylate] | 11.6 |
| 10.6 | Cc1cc(C)cc(COC(C)(C)c2cnc(C)nc2C2CCN(C(=O)Cc3c(F)cccc3F)CC2)c1 [Compound E5, 2-(2,6-Difluorophenyl)-1-(4-(5-(2-(3,5-dimethylbenzyloxy)propan-2-yl)-2-methylpyrimidin-4-yl)piperidin-1-yl)ethanone] |  |
| 481 | Cc1ncc(C(C)(O)COc2cccnc2)c(C2CCN(C(=O)Cc3c(F)cccc3F)CC2)n1 (stereo not shown) [Compound D14, 2-(2,6-difluorophenyl)-1-(4-(5-(2-hydroxy-1-(pyridin-3-yloxy)propan-2-yl)-2-methylpyrimidin-4-yl)piperidin-1-yl)ethanone] |  |
